Measured values published in patent publication US20140031278A1, “Novel Glucagon Analogues” (NOVO NORDISK A/S, priority 2011, published 2014).
*1 amine or outer side, *2 acyl side, *3 side chain or, on linkers, in order; H or OH if unused. Where a SMILES comes first, the peptide text is derived from it. Side-chain parts run from the residue outwards. γGlu = O=C(O)[C@H](CCC(=O)[*:2])N[*:1]; εLys = N[C@@H](CCCCN[*:1])C(=O)[*:2]

What follows are compounds tested against T1, glucagon receptor (Homo sapiens, UniProt P47871) (assay: Assay (I) Glucagon activity (cAMP biosensor, FLIPR)). Conditions: HEK-293 cells with cloned glucagon receptor and cAMP biosensor; end point after 6 minutes.
T1 construct: expressed in transfected cells
T1 sequence (P47871 26-477): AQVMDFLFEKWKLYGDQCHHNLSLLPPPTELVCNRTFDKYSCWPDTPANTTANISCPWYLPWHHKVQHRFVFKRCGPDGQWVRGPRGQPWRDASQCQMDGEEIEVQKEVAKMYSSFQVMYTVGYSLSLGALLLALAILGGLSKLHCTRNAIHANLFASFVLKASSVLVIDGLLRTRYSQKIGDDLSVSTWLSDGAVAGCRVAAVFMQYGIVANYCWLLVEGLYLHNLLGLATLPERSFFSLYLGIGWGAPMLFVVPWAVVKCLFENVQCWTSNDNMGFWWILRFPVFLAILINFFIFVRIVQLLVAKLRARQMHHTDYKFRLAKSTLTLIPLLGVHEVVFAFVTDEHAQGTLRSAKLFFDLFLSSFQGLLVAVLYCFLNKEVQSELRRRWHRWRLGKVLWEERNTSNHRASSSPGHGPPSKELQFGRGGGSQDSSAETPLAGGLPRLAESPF
Type: cell-based
In short: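 HEK-293 cells expressing glucagon receptor with membrane cAMP biosensor (ACTOne), calcium-dye loaded with probenecid and a PDE inhibitor.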

SMILES | EC50 [nM]
CC(=O)N[C@@H](CCC(=O)N[C@@H](CCC(=O)N[C@@H](CCC(=O)N[C@@H](CCC(=O)NCCCC[C@H](NC(=O)[C@@H](NC(=O)[C@H](Cc1ccccc1)NC(=O)[C@H](CCC(=O)O)NC(=O)[C@H](C)NC(=O)[C@H](C)NC(=O)[C@H](CCCNC(=N)N)NC(=O)[C@H](CCCNC(=N)N)NC(=O)[C@@H](NC(=O)[C@H](CC(=O)O)NC(=O)[C@H](CC(C)C)NC(=O)[C@H](Cc1ccc(O)cc1)NC(=O)[C@H](CCCCN)NC(=O)[C@H](CO)NC(=O)[C@@H](NC(=O)[C@H](CC(=O)O)NC(=O)[C@H](CO)NC(=O)[C@@H](NC(=O)[C@H](Cc1ccccc1)NC(=O)[C@@H](NC(=O)CNC(=O)[C@H](Cc1c[nH]cn1)NC(=O)CNC(=O)[C@@H](N)Cc1c[nH]cn1)[C@@H](C)O)[C@@H](C)O)C(C)C)C(C)C)C(C)C)C(=O)N[C@@H](Cc1c[nH]c2ccccc12)C(=O)N[C@@H](CC(C)C)C(=O)N[C@@H](CC(C)C)C(=O)N[C@@H](CO)C(=O)N[C@H](C(=O)O)[C@@H](C)O)C(=O)O)C(=O)O)C(=O)O)C(=O)O [Example 50, N^ε24-[(4S)-4-[[(4S)-4-[[(4S)-4-[[(4S)-4-acetamido-4-carboxybutanoyl]amino]-4-carboxybutanoyl]amino]-4-carboxybutanoyl]amino]-4-carboxybutanoyl]-[Gly^2,His^3,Val^10,Val^16,Ala^20,Glu^21,Lys^24,Leu^27,Ser^28]-Glucagon] (H-HGHGTFTSDVSKYLDVRRAAEFVK([γGlu-γGlu-γGlu-γGlu-Ac])WLLST-OH) | 0.153
CC(=O)N[C@@H](CCC(=O)N[C@@H](CCC(=O)N[C@@H](CCC(=O)N[C@@H](CCC(=O)NCCCC[C@H](NC(=O)[C@@H](NC(=O)[C@H](Cc1ccccc1)NC(=O)[C@H](CC(=O)O)NC(=O)[C@H](CCC(N)=O)NC(=O)[C@H](C)NC(=O)[C@H](CCCNC(=N)N)NC(=O)[C@H](CCCNC(=N)N)NC(=O)[C@H](CC(C)C)NC(=O)[C@H](CC(=O)O)NC(=O)[C@H](CC(C)C)NC(=O)[C@H](Cc1ccc(O)cc1)NC(=O)[C@H](CCCCN)NC(=O)[C@H](CO)NC(=O)[C@H](Cc1ccc(O)cc1)NC(=O)[C@H](CC(=O)O)NC(=O)[C@H](CO)NC(=O)[C@@H](NC(=O)[C@H](Cc1ccccc1)NC(=O)[C@@H](NC(=O)CNC(=O)[C@H](CCC(N)=O)NC(=O)[C@H](C)NC(=O)[C@@H](N)Cc1c[nH]cn1)[C@@H](C)O)[C@@H](C)O)C(C)C)C(=O)N[C@@H](Cc1c[nH]c2ccccc12)C(=O)N[C@@H](CC(C)C)C(=O)N[C@@H](CC(C)C)C(=O)N[C@@H](CO)C(=O)N[C@H](C(=O)O)[C@@H](C)O)C(=O)O)C(=O)O)C(=O)O)C(=O)O [Example 42] (H-HAQGTFTSDYSKYLDLRRAQDFVK([γGlu-γGlu-γGlu-γGlu-Ac])WLLST-OH) | 0.008
CC(=O)N[C@@H](CCC(=O)N[C@@H](CCC(=O)N[C@@H](CCC(=O)N[C@@H](CCC(=O)NCCCC[C@H](N)C(=O)NCCCC[C@H](NC(=O)[C@H](CC(=O)O)NC(=O)[C@H](CC(C)C)NC(=O)[C@H](Cc1ccc(O)cc1)NC(=O)[C@H](CCCCN)NC(=O)[C@H](CO)NC(=O)[C@H](Cc1ccc(O)cc1)NC(=O)[C@H](CC(=O)O)NC(=O)[C@H](CO)NC(=O)[C@@H](NC(=O)[C@H](Cc1ccccc1)NC(=O)[C@@H](NC(=O)CNC(=O)[C@H](CCC(N)=O)NC(=O)[C@H](CO)NC(=O)[C@@H](N)Cc1c[nH]cn1)[C@@H](C)O)[C@@H](C)O)C(=O)N[C@@H](CCCNC(=N)N)C(=O)N[C@@H](C)C(=O)N[C@@H](C)C(=O)N[C@@H](CCC(N)=O)C(=O)N[C@@H](CC(=O)O)C(=O)N[C@@H](Cc1ccccc1)C(=O)N[C@H](C(=O)N[C@@H](CCC(N)=O)C(=O)N[C@@H](Cc1c[nH]c2ccccc12)C(=O)N[C@@H](CC(C)C)C(=O)N[C@@H](CC(C)C)C(=O)N[C@@H](CO)C(=O)N[C@H](C(N)=O)[C@@H](C)O)C(C)C)C(=O)O)C(=O)O)C(=O)O)C(=O)O [Example 59] (H-HSQGTFTSDYSKYLDK([εLys-γGlu-γGlu-γGlu-γGlu-Ac])RAAQDFVQWLLST-NH2) | 0.013
CC(=O)N[C@@H](CCC(=O)N[C@@H](CCC(=O)N[C@@H](CCC(=O)N[C@@H](CCC(=O)NCCCC[C@H](NC(=O)[C@@H](NC(=O)[C@H](Cc1ccccc1)NC(=O)[C@H](CC(=O)O)NC(=O)[C@H](CCC(=O)O)NC(=O)[C@H](C)NC(=O)[C@H](CCCNC(=N)N)NC(=O)[C@H](CCCNC(=N)N)NC(=O)[C@H](CC(C)C)NC(=O)[C@H](CC(=O)O)NC(=O)[C@H](CC(C)C)NC(=O)[C@H](Cc1ccc(O)cc1)NC(=O)[C@H](CCCNC(=N)N)NC(=O)[C@H](CO)NC(=O)[C@H](Cc1ccc(O)cc1)NC(=O)[C@H](CC(=O)O)NC(=O)[C@H](CO)NC(=O)[C@@H](NC(=O)[C@H](Cc1ccccc1)NC(=O)[C@@H](NC(=O)CNC(=O)[C@H](CCC(N)=O)NC(=O)[C@H](CO)NC(=O)[C@@H](N)Cc1c[nH]cn1)[C@@H](C)O)[C@@H](C)O)C(C)C)C(=O)N[C@@H](Cc1c[nH]c2ccccc12)C(=O)N[C@@H](CC(C)C)C(=O)N[C@@H](CC(C)C)C(=O)N[C@@H](CO)C(=O)N[C@H](C(=O)O)[C@@H](C)O)C(=O)O)C(=O)O)C(=O)O)C(=O)O [Example 57, N^ε24-[(4S)-4-[[(4S)-4-[[(4S)-4-[[(4S)-4-acetamido-4-carboxybutanoyl]amino]-4-carboxybutanoyl]amino]-4-carboxybutanoyl]amino]-4-carboxybutanoyl]-[Arg^12,Leu^16,Glu^20,Lys^24,Leu^27,Ser^28]-Glucagon] (H-HSQGTFTSDYSRYLDLRRAEDFVK([γGlu-γGlu-γGlu-γGlu-Ac])WLLST-OH) | 0.017
CC(=O)N[C@@H](CCC(=O)N[C@@H](CCC(=O)N[C@@H](CCC(=O)N[C@@H](CCC(=O)NCCCC[C@H](NC(=O)[C@@H](NC(=O)[C@H](Cc1ccccc1)NC(=O)[C@H](CC(=O)O)NC(=O)[C@H](CCC(N)=O)NC(=O)[C@H](C)NC(=O)[C@H](CCCNC(=N)N)NC(=O)[C@H](CCCNC(=N)N)NC(=O)[C@H](CC(C)C)NC(=O)[C@H](CC(=O)O)NC(=O)[C@H](CC(C)C)NC(=O)[C@H](Cc1ccc(O)cc1)NC(=O)[C@H](CCCNC(=N)N)NC(=O)[C@H](CO)NC(=O)[C@H](Cc1ccc(O)cc1)NC(=O)[C@H](CC(=O)O)NC(=O)[C@H](CO)NC(=O)[C@@H](NC(=O)[C@H](Cc1ccccc1)NC(=O)[C@@H](NC(=O)CNC(=O)[C@H](CCC(N)=O)NC(=O)[C@H](CO)NC(=O)[C@@H](N)Cc1c[nH]cn1)[C@@H](C)O)[C@@H](C)O)C(C)C)C(=O)N[C@@H](Cc1c[nH]c2ccccc12)C(=O)N[C@@H](CC(C)C)C(=O)N[C@@H](CC(C)C)C(=O)N[C@@H](CO)C(=O)N[C@H](C(=O)N1CCC[C@H]1C(=O)O)[C@@H](C)O)C(=O)O)C(=O)O)C(=O)O)C(=O)O [Example 40, N^ε24-[(4S)-4-[[(4S)-4-[[(4S)-4-[[(4S)-4-acetamido-4-carboxybutanoyl]amino]-4-carboxybutanoyl]amino]-4-carboxybutanoyl]amino]-4-carboxybutanoyl]-[Arg12,Leu16,Lys24,Leu27,Ser28]-Glucagonyl-Pro] (H-HSQGTFTSDYSRYLDLRRAQDFVK([γGlu-γGlu-γGlu-γGlu-Ac])WLLSTP-OH) | 0.003
